Data set [1] in a line: Toxicity in fertilized zebra fish embryos assessed as survival rate at 1000 nM incubated for 120 hrs post fertilization by microscopic method relative to untreated control (reference value: 100%). More on the design: species or system Danio rerio. Particulars: zebrafish.
The nature of data set [2]: Toxicity in fertilized zebra fish embryos assessed as survival rate at 300 nM incubated for 120 hrs post fertilization by microscopic method relative to untreated control (reference value: 100%). More on the design: species or system Danio rerio. Particulars: zebrafish.
Data set [3] can be described thus: Aqueous solubility in pH 7.4 PBS buffer at 1 mM after 6 hrs by HPLC analysis. Format: physicochemical.
Data set [4] can be described thus: Toxicity in fertilized zebra fish embryos assessed as survival rate at 100 nM incubated for 120 hrs post fertilization by microscopic method relative to untreated control (reference value: 100%). More on the design: species or system Danio rerio. Conditions: zebrafish.
Data set [5] can be described thus: Toxicity in fertilized zebra fish embryo assessed as teratogenic effect by measuring malformation of spine curvature and head enlargement at 1000 nM after 120 hrs post fertilization by microscopic method relative to control. More on the design: species or system Danio rerio. Particulars: zebrafish, 1 µM.
A short description of data set [6]: Toxicity in fertilized zebra fish embryos assessed as hatching rate at 300 nM incubated for 120 hrs post fertilization by microscopic method relative to untreated control (reference value: 100%). More on the design: species or system Danio rerio. Particulars: zebrafish, 0.3 µM.
Data set [7] is described as follows: Toxicity in fertilized zebra fish embryo assessed as teratogenic effect by measuring malformation of spine curvature and head enlargement at 300 nM after 120 hrs post fertilization by microscopic method relative to control. More on the design: species or system Danio rerio. Conditions: zebrafish, 0.3 µM.
Data set [8] can be described thus: Toxicity in fertilized zebra fish embryo assessed as induction of malformation of spine curvature at 1000 nM after 120 hrs post fertilization by microscopic method relative to control. More on the design: species or system Danio rerio. Conditions: zebrafish, 1 µM.
Data set [9] addresses T1, Retinoic acid receptor RXR-alpha (Homo sapiens, UniProt P19793).
T1 sequence (P19793 whole entry): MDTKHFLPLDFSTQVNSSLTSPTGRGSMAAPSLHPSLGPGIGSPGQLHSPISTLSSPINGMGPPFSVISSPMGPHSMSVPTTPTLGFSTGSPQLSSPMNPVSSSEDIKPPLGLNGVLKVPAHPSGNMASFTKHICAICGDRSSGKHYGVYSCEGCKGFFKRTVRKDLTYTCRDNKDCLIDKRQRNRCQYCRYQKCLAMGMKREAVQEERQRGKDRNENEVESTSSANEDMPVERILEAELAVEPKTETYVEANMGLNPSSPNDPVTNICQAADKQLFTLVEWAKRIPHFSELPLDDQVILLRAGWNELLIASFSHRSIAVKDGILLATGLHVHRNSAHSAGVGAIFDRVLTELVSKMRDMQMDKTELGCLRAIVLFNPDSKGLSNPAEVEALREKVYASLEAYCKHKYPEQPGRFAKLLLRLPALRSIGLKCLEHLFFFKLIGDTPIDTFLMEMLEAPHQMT
The experiment in a line: Agonist activity at human RXRalpha expressed in African green monkey COS1 cells harboring CRBP2-tk-luc reporter incubated for 18 hrs by steady-glo luciferase reporter gene assay. Format: cell-based. For orientation: In a reporter assay the amount or activity of a reporter protein is the signal.

Data set [10] can be described thus: Toxicity in fertilized zebra fish embryos assessed as hatching rate at 1000 nM incubated for 120 hrs post fertilization by microscopic method relative to untreated control (reference value: 100%). Particulars: zebrafish, 1 µM. More on the design: species or system Danio rerio.
A short description of data set [11]: Toxicity in fertilized zebra fish embryos assessed as hatching rate at 100 nM incubated for 120 hrs post fertilization by microscopic method relative to untreated control (reference value: 100%). More on the design: species or system Danio rerio. Particulars: zebrafish, 0.1 µM.
The nature of data set [12]: Toxicity in fertilized zebra fish embryo assessed as teratogenic effect by measuring malformation of spine curvature and head enlargement at 100 nM after 120 hrs post fertilization by microscopic method relative to control. Particulars: zebrafish, 0.1 µM. More on the design: species or system Danio rerio.
Data set [13] is described as follows: Toxicity in fertilized zebra fish embryos assessed as survival rate at 287 nM incubated for 120 hrs post fertilization by microscopic method relative to untreated control (reference value: 100%). More on the design: species or system Danio rerio. Particulars: zebrafish.
Data set [14] can be described thus: Toxicity in fertilized zebra fish embryos assessed as hatching rate at 287 nM incubated for 120 hrs post fertilization by microscopic method relative to untreated control (reference value: 100%). More on the design: species or system Danio rerio. Particulars: zebrafish, 0.287 µM.

The record followed here is ChEMBL document CHEMBL4433234, “3H-Imidazo[4,5-b]pyridine-6-carboxylic acid derivatives as rexinoids with reduced teratogenicity” (Bioorg Med Chem Lett, 2019).

Converted amounts (≈) assume the structure as drawn.

The term solubility denotes the dissolved amount per volume that the medium holds. The term EC50 denotes the concentration giving half of the maximal effect.

For the molecule `Cc1cc2c(cc1-n1nnc3cc(C(=O)O)ccc31)C(C)(C)CCC2(C)C`, in data set [1], the survival at 120 h, 1 µM turned out to be 100%. In data set [2], the survival at 120 h, 0.3 µM was found to be 100%. In addition, the solubility at 6 h, 1000 µM in data set [3] was found to be 305 µM (≈ 111 µg/mL). Also, the survival at 120 h, 0.1 µM in data set [4] turned out to be 100%.

As for `Cc1cc2c(cc1-n1c(C(F)(F)F)nc3cc(C(=O)O)cnc31)C(C)(C)CCC2(C)C`, the Activity is recorded as 10% in data set [5]; 100% in data set [6]; 0% in [7]; “Non-Toxic” in [8]; 83% in data set [10]; 92% in [11]. In addition, the Activity in data set [12] is 0%. Further, the survival at 120 h, 1 µM in [1] was 100%. The survival at 120 h, 0.3 µM in data set [2] was 100%. In data set [3], this molecule gave a solubility at 6 h, 1000 µM of 222 µM (≈ 95.8 µg/mL). Moreover, the half-maximal effective concentration (EC50) in data set [9] was found to be 0.67 µM. Further, the survival at 120 h, 0.1 µM in data set [4] stood at 100%.

Molecule `C=C(c1ccc(C(=O)O)cc1)c1cc2c(cc1C)C(C)(C)CCC2(C)C` [BEXAROTENE] registered a solubility at 6 h, 1000 µM in [3] of 0.25 µM (≈ 0.0871 µg/mL). The survival at 120 h, 0.287 µM in data set [13] stood at 99%. Besides, in data set [4], the survival at 120 h, 0.1 µM turned out to be 100%. Also, the Activity in [11] was 67 to 100%; in [14] it was 99%; in [12], 100%.

As to `Cc1cc2c(cc1-n1c(C(F)(F)F)nc3cc(C(=O)O)ccc31)C(C)(C)CCC2(C)C`, the Activity is reported as 17% in data set [5]; 92% in data set [6]; 0% in [7]; 100% in data set [10]; 83% in [11]; 0% in data set [12]. Moreover, the survival at 120 h, 1 µM in [1] is 100%. In data set [2], the survival at 120 h, 0.3 µM stood at 100%. In data set [3], the concentration in solution (solubility at 6 h, 1000 µM) came to 12.8 µM (≈ 5.51 µg/mL). Moreover, in data set [4], the survival at 120 h, 0.1 µM amounted to 100%.

Take `Cc1cc2c(cc1-n1nnc3cc(C(=O)O)cnc31)C(C)(C)CCC2(C)C`: the Activity is 25% in data set [5]; 100% in [6]; 0% in data set [7]; “Toxic” in data set [8]; 100% in data set [10]; 100% in [11]. Also, the Activity in data set [12] was 0%. Besides, the survival at 120 h, 1 µM in [1] was determined as 100%. The survival at 120 h, 0.3 µM in data set [2] came to 100%. Further, the solubility at 6 h, 1000 µM in data set [3] worked out at 670 µM (≈ 244 µg/mL). Also, the EC50 in data set [9] came out at 0.275 µM. In addition, the survival at 120 h, 0.1 µM in data set [4] turned out to be 100%.
